What was measured:
Experiment in all cases: relative viability (nuclei count vs DMSO), 5 days (fraction); higher = more cells survive
Dovitinib + Tozasertib = compound: CN1CCN(c2ccc3nc(-c4c(N)c5c(F)cccc5[nH]c4=O)[nH]c3c2)CC1 [Dovitinib] + Cc1cc(Nc2cc(N3CCN(C)CC3)nc(Sc3ccc(NC(=O)C4CC4)cc3)n2)n[nH]1 [Tozasertib] (partner 0.1 µM)
Outline: (§1)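 After 5 days of treatment, lung cancer cells in 1536-well plates were fixed and stained in a single step (final 0.05% Triton X-100, 1% formaldehyde, 1 ug/ml Hoechst) and their nuclei counted on 4× images. Treatment had been applied by pin tool the day after seeding as one drug alone or as a fixed anchor-drug dose with five library-drug doses (not always all listed) in √10 steps. Relative viability is the nuclei count of treated wells divided by that of vehicle wells, and values are medians of duplicate plates.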

Dovitinib + Foretinib = compound: CN1CCN(c2ccc3nc(-c4c(N)c5c(F)cccc5[nH]c4=O)[nH]c3c2)CC1 [Dovitinib] + COc1cc2c(Oc3ccc(NC(=O)C4(C(=O)Nc5ccc(F)cc5)CC4)cc3F)ccnc2cc1OCCCN1CCOCC1 [Foretinib] (partner 0.25 µM)
Outline: as §1

Dovitinib + AZD7762 = compound: CN1CCN(c2ccc3nc(-c4c(N)c5c(F)cccc5[nH]c4=O)[nH]c3c2)CC1 [Dovitinib] + NC(=O)Nc1cc(-c2cccc(F)c2)sc1C(=O)N[C@H]1CCCNC1 [AZD7762] (partner 0.2 µM)
Outline: as §1

Dovitinib + Luminespib = compound: CN1CCN(c2ccc3nc(-c4c(N)c5c(F)cccc5[nH]c4=O)[nH]c3c2)CC1 [Dovitinib] + CCNC(=O)c1noc(-c2cc(C(C)C)c(O)cc2O)c1-c1ccc(CN2CCOCC2)cc1 [Luminespib] (partner 0.01 µM)
Outline: as §1

Cell Line	relative viability (Dovitinib + Tozasertib; first compound 0.02 µM)	relative viability (Dovitinib + Tozasertib; first compound 0.06325 µM)	relative viability (Dovitinib + Tozasertib; first compound 0.2 µM)	relative viability (Dovitinib + Tozasertib; first compound 0.6325 µM)	relative viability (Dovitinib + Tozasertib; first compound 2 µM)	relative viability (Dovitinib + Foretinib; first compound 0.02 µM)	relative viability (Dovitinib + Foretinib; first compound 0.06325 µM)	relative viability (Dovitinib + Foretinib; first compound 0.2 µM)	relative viability (Dovitinib + Foretinib; first compound 0.6325 µM)	relative viability (Dovitinib + Foretinib; first compound 2 µM)	relative viability (Dovitinib + AZD7762; first compound 0.02 µM)	relative viability (Dovitinib + AZD7762; first compound 0.06325 µM)	relative viability (Dovitinib + AZD7762; first compound 0.2 µM)	relative viability (Dovitinib + AZD7762; first compound 0.6325 µM)	relative viability (Dovitinib + AZD7762; first compound 2 µM)	relative viability (Dovitinib + Luminespib; first compound 0.02 µM)	relative viability (Dovitinib + Luminespib; first compound 0.06325 µM)	relative viability (Dovitinib + Luminespib; first compound 0.2 µM)	relative viability (Dovitinib + Luminespib; first compound 0.6325 µM)	relative viability (Dovitinib + Luminespib; first compound 2 µM)
NCI-H838	0.236	0.263	0.282	0.295	0.252	1.05	1.02	1.04	0.937	0.961	0.864	0.979	0.912	0.986	0.96	0.277	0.307	0.349	0.25	0.289
NCI-H1355	0.567	0.566	0.618	0.54	0.596	0.943	0.932	0.713	0.976	0.903	0.695	0.745	0.746	0.703	0.727	0.716	0.781	0.829	0.827	0.68
NCI-H1395	0.721	0.75	0.81	0.765	0.815	1.07	1.12	0.935	0.947	1.02	0.425	0.366	0.435	0.374	0.398	0.703	0.661	0.757	0.629	0.665
NCI-H1437	0.418	0.392	0.435	0.392	0.419	1.24	1.29	1.22	1.2	1.27	1.19	1.09	1.22	1.11	1.09	1.07	1.12	1.13	0.985	1.07
NCI-H1651	0.61	0.65	0.691	0.682	0.733	0.899	0.792	0.836	0.796	0.721	0.45	0.507	0.505	0.466	0.429	0.901	0.902	0.996	0.752	0.683
NCI-H1666	0.582	0.651	0.581	0.525	0.625	1.02	0.975	0.961	0.99	0.961	0.876	0.859	0.882	0.855	0.812	1.02	0.991	1.07	0.997	0.972
NCI-H1734	0.287	0.279	0.264	0.223	0.288	0.9	0.813	0.834	0.735	0.834	0.532	0.505	0.475	0.583	0.71	0.177	0.231	0.185	0.182	0.198
NCI-H1755	0.53	0.62	0.554	0.561	0.555	0.935	0.895	1.03	0.92	0.969	0.427	0.461	0.484	0.593	0.436	0.41	0.305	0.417	0.54	0.508

From the supplement of paper PMC10307832
